Here are results for seven compounds from patent US11173151B2, “Substituted triazole derivatives and uses thereof” (BAYER AKTIENGESELLSCHAFT, priority 2017, dated 2021).

By IC50 is commonly meant the midpoint of a concentration-inhibition curve.

For assay [1], the target named is T1, human V2 receptor (Homo sapiens, UniProt P30518).
T1 construct: expressed in transfected cells; host or cells: CHO K1 (ATCC) expressing firefly luciferase under a CRE-responsive promoter
Kind of assay: Cellular in vitro assay for determining vasopressin receptor activity, V2 receptor cell line (CHO, CRE-luciferase). The assay is classed as cell-based. Conditions: CHO cell line transfected with human V2 receptor; [Arg8]-vasopressin at EC50 concentration, 3 hours; read-out: IC50 hV2.

Assay [2] deals with T2, human V1a receptor (Homo sapiens, UniProt P37288).
T2 construct: expressed in transfected cells; host or cells: CHO K1 (ATCC), also stably transfected with a modified aequorin
In words: Cellular in vitro assay for determining vasopressin receptor activity, V1a receptor cell line (CHO, aequorin luminescence). The assay is classed as cell-based. Conditions: for IC50: CHO cell line transfected with human V1a receptor, [Arg]-vasopressin at EC50 concentration, read-out: IC50 hV1a; for ratio IC50 hV2/hV1a: selectivity ratio IC50 hV2 / IC50 hV1a. The method, boiled down: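 Antagonism is measured in stable CHO K1 transfectants coexpressing the Gαq-coupled receptor and a calcium-sensitive aequorin photoprotein. Agonist challenge uses [Arg]-vasopressin at EC50 after a 10-minute compound exposure; IC50 values come from the luminescence signal.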

T1 sequence (P30518 whole entry): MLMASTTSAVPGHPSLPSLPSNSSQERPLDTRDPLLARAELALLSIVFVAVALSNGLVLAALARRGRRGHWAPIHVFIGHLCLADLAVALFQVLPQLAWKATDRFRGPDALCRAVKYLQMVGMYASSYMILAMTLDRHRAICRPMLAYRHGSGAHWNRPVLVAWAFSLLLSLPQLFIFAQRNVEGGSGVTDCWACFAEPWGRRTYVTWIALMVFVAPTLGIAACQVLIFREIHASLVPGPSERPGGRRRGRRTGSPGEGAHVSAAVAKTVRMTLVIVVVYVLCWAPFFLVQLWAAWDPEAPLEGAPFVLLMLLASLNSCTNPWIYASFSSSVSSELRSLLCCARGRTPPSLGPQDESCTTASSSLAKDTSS
T2 sequence (P37288 whole entry): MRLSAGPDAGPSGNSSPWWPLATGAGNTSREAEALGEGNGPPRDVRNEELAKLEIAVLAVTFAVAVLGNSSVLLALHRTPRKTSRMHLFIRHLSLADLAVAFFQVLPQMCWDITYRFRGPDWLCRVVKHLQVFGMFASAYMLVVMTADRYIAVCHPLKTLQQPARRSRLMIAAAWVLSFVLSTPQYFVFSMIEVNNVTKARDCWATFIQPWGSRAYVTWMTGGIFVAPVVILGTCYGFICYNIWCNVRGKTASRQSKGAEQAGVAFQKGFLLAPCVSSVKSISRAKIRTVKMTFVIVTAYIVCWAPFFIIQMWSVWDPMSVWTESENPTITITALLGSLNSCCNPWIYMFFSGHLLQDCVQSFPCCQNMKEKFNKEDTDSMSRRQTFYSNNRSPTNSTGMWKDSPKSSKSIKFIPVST

On to `Cc1noc(NC(=O)c2ccccc2-n2cnc(Cn3nc(-c4ccc(Cl)cc4)n(C[C@H](O)C(F)(F)F)c3=O)n2)c1C` [Example 244, 2-[3-({3-(4-Chlorophenyl)-5-oxo-4-[(2S)-3,3,3-trifluoro-2-hydroxypropyl]-4,5-dihydro-1H-1,2,4-triazol-1-yl}methyl)-1H-1,2,4-triazol-1-yl]-N-(3,4-dimethyl-1,2-oxazol-5-yl)benzamide], for which the concentration for half-maximal inhibition (IC50) in assay [1] turned out to be 230 nM. Moreover, in assay [2], the IC50 worked out at 7.3 nM and the “ratio IC50 hV2/hV1a” value turned out to be 31.5.

As for `CC(C)=CCNC(=O)c1ccccc1-n1cnc(Cn2nc(-c3ccc(Cl)cc3)n(C[C@H](O)C(F)(F)F)c2=O)n1` [Example 245, 2-[3-({3-(4-Chlorophenyl)-5-oxo-4-[(2S)-3,3,3-trifluoro-2-hydroxypropyl]-4,5-dihydro-1H-1,2,4-triazol-1-yl}methyl)-1H-1,2,4-triazol-1-yl]-N-(3-methylbut-2-en-1-yl)benzamide], in assay [1], the IC50 turned out to be 810 nM. In assay [2], the IC50 is 6.45 nM and the “ratio IC50 hV2/hV1a” value came out at 125.6.

As for `O=C(N[C@H]1CC[C@H](O)CC1)c1ccccc1-n1cnc(Cn2nc(-c3ccc(Cl)cc3)n(C[C@H](O)C(F)(F)F)c2=O)n1` [Example 246, 2-[3-({3-(4-Chlorophenyl)-5-oxo-4-[(2S)-3,3,3-trifluoro-2-hydroxypropyl]-4,5-dihydro-1H-1,2,4-triazol-1-yl}methyl)-1H-1,2,4-triazol-1-yl]-N-(trans-4-hydroxycyclohexyl)benzamide], the IC50 in assay [1] is 1200 nM. Further, in assay [2], the IC50 is 4.55 nM and the “ratio IC50 hV2/hV1a” value worked out at 263.7.

As to `O=C(Nc1ccccc1O)c1ccccc1-n1cnc(Cn2nc(-c3ccc(Cl)cc3)n(C[C@H](O)C(F)(F)F)c2=O)n1` [Example 247, 2-[3-({3-(4-Chlorophenyl)-5-oxo-4-[(2S)-3,3,3-trifluoro-2-hydroxypropyl]-4,5-dihydro-1H-1,2,4-triazol-1-yl}methyl)-1H-1,2,4-triazol-1-yl]-N-(2-hydroxyphenyl)benzamide], the IC50 in assay [1] is 10.4 nM. Moreover, in assay [2], the IC50 was found to be 2.4 nM and the “ratio IC50 hV2/hV1a” value was determined as 4.4.

`O=C(Nc1cccnc1)c1ccccc1-n1cnc(Cn2nc(-c3ccc(Cl)cc3)n(C[C@H](O)C(F)(F)F)c2=O)n1` [Example 248, 2-[3-({3-(4-Chlorophenyl)-5-oxo-4-[(2S)-3,3,3-trifluoro-2-hydroxypropyl]-4,5-dihydro-1H-1,2,4-triazol-1-yl}methyl)-1H-1,2,4-triazol-1-yl]-N-(pyridin-3-yl)benzamide]: the IC50 in assay [1] was found to be 65 nM. Besides, in assay [2], the IC50 was 1.2 nM and the “ratio IC50 hV2/hV1a” value amounted to 54.2.

On to `Cc1ccc(NC(=O)c2ccccc2-n2cnc(Cn3nc(-c4ccc(Cl)cc4)n(C[C@H](O)C(F)(F)F)c3=O)n2)cn1` [Example 249, 2-[3-({3-(4-Chlorophenyl)-5-oxo-4-[(2S)-3,3,3-trifluoro-2-hydroxypropyl]-4,5-dihydro-1H-1,2,4-triazol-1-yl}methyl)-1H-1,2,4-triazol-1-yl]-N-(6-methylpyridin-3-yl)benzamide], for which the values for the half-maximal inhibitory concentration (IC50) in assay [1] and in assay [2] were 136 nM and 2.8 nM, respectively. The “ratio IC50 hV2/hV1a” value in assay [2] is on record as 48.6.

Take `Cc1cc(NC(=O)c2ccccc2-n2cnc(Cn3nc(-c4ccc(Cl)cc4)n(C[C@H](O)C(F)(F)F)c3=O)n2)cnc1F` [Example 250, 2-[3-({3-(4-Chlorophenyl)-5-oxo-4-[(2S)-3,3,3-trifluoro-2-hydroxypropyl]-4,5-dihydro-1H-1,2,4-triazol-1-yl}methyl)-1H-1,2,4-triazol-1-yl]-N-(6-fluoro-5-methylpyridin-3-yl)benzamide]: the values for the IC50 in assay [1] and in assay [2] were 87 nM and 4.45 nM, respectively. The “ratio IC50 hV2/hV1a” value in assay [2] is recorded as 19.6.
